Measurements: PubChem BioAssay (NCI)
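Protocol summary: plate cells (96-well), add compound at 5 concentrations, incubate 48 h, interpolate endpoints linearly. The concentration for 50% growth inhibition is given as GI50. At the TGI there is no net growth.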

How the values were obtained:
Experiment in all cases: NCI-60 cell line screen, 48 h
HOP-92 NSCLC = tested on: HOP-92 NSCLC
SF-539 CNS = tested on: SF-539 CNS
EKVX NSCLC = tested on: EKVX NSCLC
UACC-62 melanoma = tested on: UACC-62 melanoma
SK-MEL-5 melanoma = tested on: SK-MEL-5 melanoma
A498 renal = tested on: A498 renal
SN12C renal = tested on: SN12C renal
NCI-H226 lung = tested on: NCI-H226 lung
HCT-15 colon = tested on: HCT-15 colon
MALME-3M melanoma = tested on: MALME-3M melanoma

Row | Compound | TGI (HOP-92 NSCLC) | TGI (SF-539 CNS) | TGI (EKVX NSCLC) | TGI (UACC-62 melanoma) | TGI (SK-MEL-5 melanoma) | TGI (A498 renal) | TGI (SN12C renal) | GI50 (NCI-H226 lung) | TGI (NCI-H226 lung) | GI50 (HCT-15 colon) | TGI (HCT-15 colon) | GI50 (MALME-3M melanoma) | TGI (MALME-3M melanoma) | GI50 (UACC-62 melanoma) | GI50 (SK-MEL-5 melanoma) | GI50 (A498 renal) | GI50 (SN12C renal) | GI50 (SF-539 CNS) | GI50 (EKVX NSCLC) | GI50 (HOP-92 NSCLC)
1 | CCNC(=O)O/N=C1\CCC2[C@@H]3CC=C4C[C@@H](OC5CCCCO5)CC[C@]4(C)C3CC[C@]12C (stereo partly specified) | 7.34 µM | > 100 µM | 5.78 µM | 3.94 µM | > 100 µM | > 100 µM | 6.07 µM |  |  |  |  |  |  |  |  |  |  |  |  | 
2 | CC(=O)[CH-]C(=O)c1ccccc1.CC(=O)[CH-]C(=O)c1ccccc1.C[C@]12CCC(=O)C=C1CC[C@@H]1C2CC[C@@]2(C)C1CC[C@@H]2[O-].C[C@]12CCC(=O)C=C1CC[C@@H]1C2CC[C@@]2(C)C1CC[C@@H]2[O-].Cl.[Ti+4] (stereo partly specified) |  |  |  | 33.8 µM | 32 µM | 30.8 µM | 70.6 µM | 12.9 µM | 35.2 µM | 15.2 µM | 43 µM | 20.1 µM | 46.8 µM | 6.67 µM | 11.3 µM | 16.5 µM | 20.8 µM |  |  | 
3 | Cc1ccc2c(c1)S(=O)(=O)c1ccc3ccccc3c1N2 | > 100 µM | > 100 µM | > 100 µM | > 100 µM | > 100 µM | > 100 µM | > 100 µM |  | > 100 µM |  | > 100 µM |  |  |  |  |  |  |  |  | 
4 | O=C(c1ccco1)c1c(C(F)(F)F)n([O-])c2ccc(Cl)cc2[n+]1=O |  | 0.924 µM | 2.12 µM | 1.99 µM | 1.64 µM | 2.99 µM | 3.13 µM | 1.43 µM | 3.24 µM | 0.372 µM | 1.72 µM | 5.86 µM | 21.3 µM | 0.574 µM | 0.538 µM | 1.46 µM | 1.35 µM | 0.37 µM | 0.561 µM | 
5 | CC(=O)NC1C(OCc2ccccc2)OC(COC(=O)CCCCCCCCCCNc2ccc([N+](=O)[O-])c3[nH]c4ccccc4c(=O)c23)C(O)C1OC(C)C(=O)NC(C)C(=O)NC(CCC(N)=O)C(=O)OCc1ccccc1 (stereo unspecified) |  | > 100 µM | > 100 µM | > 100 µM | > 100 µM | > 100 µM | > 100 µM |  | > 100 µM |  | > 100 µM |  |  |  |  |  |  |  |  | 
6 | CS(=O)(=O)CC(=O)c1ccccc1 |  | > 100 µM | > 100 µM | > 100 µM | > 100 µM | > 100 µM | > 100 µM |  | > 100 µM |  | > 100 µM |  | > 100 µM |  |  |  |  |  |  | 
7 | COC1=CC(c2ccc[nH]2)=N/C1=C\c1[nH]c(C)c(C(=O)CCCCC(=O)Oc2ccc3c(c2)CCC2C3CC[C@]3(C)[C@@H](O)CC[C@@H]23)c1C (stereo partly specified) | 29.2 µM |  |  | > 100 µM | > 100 µM | > 100 µM | > 100 µM | 8.88 µM | > 100 µM | 3.56 µM | > 100 µM |  |  | 3.58 µM | 3.63 µM | > 100 µM | > 100 µM |  |  | 3.3 µM
8 | COc1cc([N+](=O)[O-])c(OC)cc1-c1nc2sc(Cl)cn2c1/C=N/NC1=NCCN1 |  | 0.352 µM | 5.64 µM |  | 2.19 µM | 3.57 µM | 3.52 µM |  |  | 1.64 µM | 2.99 µM |  |  |  | 0.83 µM | 1.85 µM | 1.67 µM | 0.184 µM | 2.33 µM | 
9 | NCC1OC(OC2C(CO)OC(OC3C(O)C(N)CC(N)C3OC3OC(CO)C(O)CC3N)C2O)C(N)C(O)C1OC1OC(CO)C(O)C(O)C1O (stereo unspecified) | > 50 µg/mL | > 50 µg/mL | > 50 µg/mL | > 50 µg/mL | > 50 µg/mL | > 50 µg/mL | > 50 µg/mL | > 50 µg/mL | > 50 µg/mL | > 50 µg/mL | > 50 µg/mL |  |  | > 50 µg/mL | > 50 µg/mL | > 50 µg/mL | > 50 µg/mL | > 50 µg/mL | > 50 µg/mL | 14.7 µg/mL
10 | Clc1cc(Cl)cc(N2N=C(c3cccc(Nc4ccncc4)c3)CC2c2ccc3c(c2)OCO3)c1 (stereo unspecified) | 2.82 µM | 3.31 µM | 3.2 µM | 3.17 µM | 3.21 µM | 4.54 µM | 3.13 µM | 1.91 µM | 4.3 µM | 1.76 µM | 3.44 µM |  |  | 1.71 µM | 1.77 µM | 1.34 µM | 1.66 µM | 1.84 µM | 1.61 µM | 1.39 µM
11 | OCc1c[te]c(-c2ccccc2)c1 |  | 78.3 µM | > 100 µM | > 100 µM | > 100 µM | > 100 µM | 78.7 µM |  | 85.1 µM |  | > 100 µM |  | > 100 µM |  |  |  |  |  |  | 
12 | COC(=O)C(Cc1nc2ccccc2nc1C)/C(=N\NC(N)=O)C(=O)Nc1cccc([N+](=O)[O-])c1 (stereo unspecified) |  | > 100 µM | > 100 µM | > 100 µM | > 100 µM | > 100 µM | > 100 µM |  | > 100 µM |  | > 100 µM |  | > 100 µM |  |  |  |  |  |  | 
13 | Cc1ccccc1-n1c2nc(=O)n(C)c(=O)c-2nc2ccccc21 |  | 29.2 µM | 24.3 µM | 9.78 µM | 23.1 µM | 79.1 µM | 26.6 µM |  | 45 µM |  | 24.3 µM |  | 16.8 µM |  |  |  |  |  |  | 
14 | CC1=CC(N2C(=O)C(C)=CC2O)NC1=O (stereo unspecified) | > 100 µM | > 100 µM | > 100 µM |  |  |  | > 100 µM |  | > 100 µM |  |  |  | > 100 µM |  |  |  |  |  |  | 
15 | COc1cc(-c2c(C#N)c(N)nc(N3CCOCC3)c2C#N)cc(OC)c1OC | > 100 µM | > 100 µM | > 100 µM | > 100 µM | > 100 µM | > 100 µM | > 100 µM | > 100 µM | > 100 µM | > 100 µM | > 100 µM |  |  | 36.9 µM | > 100 µM | > 100 µM | > 100 µM | > 100 µM | > 100 µM | 35.9 µM
16 | O=C1OCC2=C1C(c1ccc(Cl)c(Cl)c1)c1cc3c(cc1N2CCO)CCC3 (stereo unspecified) |  | 3.32 µM | 15.6 µM | 8.6 µM | 7.22 µM | 1.37 µM | 8.91 µM | 0.248 µM | 6.47 µM | 0.215 µM | 20.3 µM | 0.193 µM | 16.4 µM | 0.215 µM | 0.181 µM | 0.0919 µM | 0.398 µM | 0.147 µM | 0.435 µM | 
17 | CC(C)(C)CC(N)=O | > 100 µM | > 100 µM | > 100 µM | > 100 µM | > 100 µM | > 100 µM | > 100 µM |  | > 100 µM |  | > 100 µM |  |  |  |  |  |  |  |  | 
18 | Cn1c(/C=C/[N+](=O)[O-])cc2ccccc21 |  |  | > 100 µM | 31 µM | 13.3 µM | 9.27 µM | > 100 µM | 4.23 µM | 21 µM | 3.24 µM | 11.2 µM | 11.1 µM | 25.9 µM | 11.4 µM | 3.07 µM | 2.19 µM | 13.1 µM |  | 15.3 µM | 
19 | O=S(=O)(/N=c1/scc(-c2ccccc2)n1-c1ccccc1)c1ccc(N2N=C3c4ccccc4CC3C2c2cccs2)cc1 (stereo unspecified) | > 100 µM | > 100 µM | > 100 µM | > 100 µM | > 100 µM |  | > 100 µM | 78.9 µM | > 100 µM | 67.3 µM | > 100 µM |  |  | 60.3 µM | 48 µM |  | 94.3 µM | > 100 µM | 35.5 µM | > 100 µM
20 | COC(=O)C1=C(C(=O)OC)C2(C)Nc3ccccc3C2=C(c2ccccc2)C1 (stereo unspecified) | 38.9 µM | 37.5 µM | 70.5 µM | 38.5 µM | 29.9 µM |  | 57.7 µM |  |  |  | 51.8 µM |  | 37.1 µM |  |  |  |  |  |  | 
21 | O=C(Nc1ccccc1)c1cc(S(=O)(=O)Nc2nc3ccccc3o2)c(SCc2ccccc2)cc1Cl |  | 31.1 µM | 31.3 µM | 31.6 µM | 28 µM | 34.6 µM | 46.2 µM | 21.5 µM | 50.7 µM | 17 µM | 34 µM |  |  | 17.1 µM | 14.1 µM | 15.2 µM | 20.3 µM | 15.8 µM | 15.3 µM | 
22 | N/N=c1\c2ccccc2c2cc3c(cc12)/c(=N/N)c1ccccc13 | > 100 µM | > 100 µM | > 100 µM | > 100 µM | > 100 µM |  | > 100 µM |  | > 100 µM |  | > 100 µM |  | > 100 µM |  |  |  |  |  |  | 
23 | COc1cc([C@@H]2C[C@H]2c2cc(SC)n[nH]2)cc(OC)c1OC |  |  | 40.2 µM | 43.6 µM | 29 µM |  | 31.8 µM | 16.9 µM | 70.4 µM | 22.8 µM | 80.2 µM |  |  | 14 µM | 14.7 µM |  | 8.98 µM |  | 14.9 µM | 
24 | CC1(c2ccccc2)CC(c2cccc([N+](=O)[O-])c2)=NO1 (stereo unspecified) | > 100 µM | > 100 µM |  |  | > 100 µM | > 100 µM | > 100 µM |  | > 100 µM |  | > 100 µM |  | > 100 µM |  |  |  |  |  |  | 
25 | COc1cc(-c2cc(-c3cc(OC)c(OC)c(OC)c3)nc3nc(N)[nH]c(=O)c23)ccc1Oc1ccnc2cc(Cl)ccc12 |  | 3.18 µM |  | 25.2 µM | 13.3 µM | 86.4 µM | 41.8 µM | 13.4 µM | 35.9 µM | 0.457 µM | 24.4 µM | 3.5 µM | > 100 µM | 3.55 µM | 2.93 µM | 16.3 µM | 3.83 µM | 1.16 µM |  | 
